Test results as given in patent US20250332173A1, “COMPOUNDS AND METHODS FOR MODULATING NUCLEIC ACID SPLICING” (REMIX THERAPEUTICS INC., priority 2021, published 2025).

tested on: SMN2 mRNA; test: RT-qPCR splicing assay, SMN2 canonical junction (CJ) mRNA; format: cell-based, human; details: Homo sapiens; canonical junction qPCR panel, Table 5; read-out: SMN2 (decrease in CJ mRNA levels, IC50)
Method in brief: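 Canonical exon-exon junction transcript levels measured by one-step RT-qPCR of cell lysates, normalized to a housekeeping gene (GAPDH, GUSB or PPIA). Cells used were A673 or K562, exposed for 24 h to compound in 11-point, 3-fold series from 10 uM, with final DMSO at or below 0.25%.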

| IC50 [nM] | SMILES |
| --- | --- |
| < 100 | Cc1c(O)c(-c2ncc3c(=O)n([C@H]4C[C@H](N)C4)ccc3n2)cc2cn(C)nc12 [Compound 1432, 6-((1r,3r)-3-aminocyclobutyl)-2-(6-hydroxy-2,7-dimethyl-2H-indazol-5-yl)pyrido[4,3-d]pyrimidin-5(6H)-one] |
| < 100 | Cc1c(O)c(-c2ncc3c(=O)n([C@@H]4CCN[C@H](C)C4)ccc3n2)cc2cn(C)nc12 [Compound 1434, 2-(6-hydroxy-2,7-dimethyl-indazol-5-yl)-6-(2-methyl-4-piperidyl)pyrido[4,3-d]pyrimidin-5-one] |
| < 100 | Cc1c(O)c(-c2ncc3c(=O)n([C@H]4CCNC(C)(C)C4)ccc3n2)cc2cn(C)nc12 [Compound 1436] |
| < 100 | Cc1cn2nc(-c3ccc4c(=O)n([C@H]5CCNC5)ccc4n3)cc(C)c2n1 [Compound 1437, 2-(2,8-dimethylimidazo[1,2-b]pyridazin-6-yl)-6-[(3S)-pyrrolidin-3-yl]-1,6-aphthyridin-5-one] |
| < 100 | Cc1cn2nc(-c3ccc4c(=O)n([C@@H]5CCNC5)ccc4n3)cc(C)c2n1 [Compound 1438, 2-(2,8-dimethylimidazo[1,2-b]pyridazin-6-yl)-6-[(3R)-pyrrolidin-3-yl]-1,6-naphthyridin-5-one] |
| < 100 | Cc1c(O)c(-c2ncc3c(=O)n([C@H]4CCN[C@@H](C)C4)ccc3n2)cc2cn(C)nc12 [Compound 1441, 2-(6-hydroxy-2,7-dimethyl-indazol-5-yl)-6-(2-methyl-4-piperidyl)pyrido[4,3-d]pyrimidin-5-one] |
| < 100 | Cc1c(O)c(-c2ncc3c(=O)n(C4CCNC(C)(C)C4)ccc3n2)cc2cn(C)nc12 (stereo not shown) [Compound 1442] |
| 100 to 1000 | Cc1c(O)c(-c2ncc3c(=O)n([C@@H]4C[C@H]5C[C@@H]4CN5)ccc3n2)cc2cn(C)nc12 [Compound 1445, 6-[(1R,4R,5R)-2-azabicyclo[2.2.1]heptan-5-yl]-2(6-hydroxy-2,7-dimethyl-indazol-5-yl)pyrido[4,3-d]pyrimidin-5-one] |
| < 100 | Cc1c(O)c(-c2ccc3c(=O)n(C4CC(C)NC(C)C4)ccc3n2)cc2cn(C)nc12 (stereo not shown) [Compound 1447, 6-(2,6-dimethyl-4-piperidyl)-2-(6-hydroxy-2,7-dimethyl-indazol-5-yl)-1,6-naphthyridin-5-one] |
| < 100 | Cc1cn2cc(-c3cc(O)c4c(=O)n(C5CCNCC5)ccc4n3)cc(F)c2n1 [Compound 1448] |
| < 100 | Cc1c(O)c(-c2ccc3c(=O)n([C@H]4CCNC4)ccc3n2)cc2cn(C)nc12 [Compound 1449, 2-(6-hydroxy-2,7-dimethyl-indazol-5-yl)-6-[(3S)-pyrrolidin-3-yl]-1,6-naphthyridin-5-one] |
| < 100 | Cc1c(O)c(-c2ccc3c(=O)n([C@@H]4CCNC4)ccc3n2)cc2cn(C)nc12 [Compound 1450, 2-(6-hydroxy-2,7-dimethyl-indazol-5-yl)-6-[(3R)-pyrrolidin-3-yl]-1,6-naphthyridin-5-one] |
| < 100 | Cn1cc2cc(-c3ccc4c(=O)n([C@H]5CCNC5)ccc4n3)c(O)c(F)c2n1 [Compound 1451, 2-(7-fluoro-6-hydroxy-2-methyl-indazol-5-yl)-6-[(3S)-pyrrolidin-3-yl]-1,6-naphthyridin-5-one] |
| < 100 | Cn1cc2cc(-c3ccc4c(=O)n([C@@H]5CCNC5)ccc4n3)c(O)c(F)c2n1 [Compound 1452, 2-(7-fluoro-6-hydroxy-2-methyl-indazol-5-yl)-6-[(3R)-pyrrolidin-3-yl]-1,6-naphthyridin-5-one] |
| < 100 | Cc1c(O)c(-c2ncc3c(=O)n([C@@H]4C[C@@H](C)N[C@@H](C)C4)ccc3n2)cc2cn(C)nc12 [Compound 1453, 6-[(2S,6R)-2,6-dimethyl-4-piperidyl]-2-(6-hydroxy-2,7-dimethyl-indazol-5-yl)pyrido[4,3-d]pyrimidin-5-one] |
| < 100 | Cc1c(O)c(-c2ncc3c(=O)n(C4C[C@@H](C)N[C@H](C)C4)ccc3n2)cc2cn(C)nc12 (stereo partly drawn) [Compound 1454, 6-[(2R,6R)-2,6-dimethyl-4-piperidyl]-2-(6-hydroxy-2,7-dimethyl-indazol-5-yl)pyrido[4,3-d]pyrimidin-5-one] |
